Experimental data published in PubChem BioAssay (NCI).
“And” between values parts separate entries of the source, which are not always exact repeats. Identical values can stand only once.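 Cultured in 96-well plates, cells were exposed to test compound for 48 hours across five concentrations. GI50 marks 50% less growth. TGI: concentration producing complete growth inhibition.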

Columns and labels:
Test in all cases: growth of human tumour cells (NCI), 48 h
CCRF-CEM leukemia = system: CCRF-CEM leukemia
IGROV1 ovarian = system: IGROV1 ovarian
HCC-2998 colon = system: HCC-2998 colon
ACHN renal = system: ACHN renal
SF-539 CNS = system: SF-539 CNS
NCI-H460 lung = system: NCI-H460 lung
HCT-116 colon = system: HCT-116 colon
K-562 leukemia = system: K-562 leukemia
MDA-MB-231 breast = system: MDA-MB-231 breast
RPMI-8226 leukemia = system: RPMI-8226 leukemia

SMILES	GI50 (CCRF-CEM leukemia) [µM]	TGI (CCRF-CEM leukemia)	GI50 (IGROV1 ovarian)	TGI (IGROV1 ovarian) [µM]	GI50 (HCC-2998 colon)	TGI (HCC-2998 colon) [µM]	GI50 (ACHN renal)	TGI (ACHN renal) [µM]	GI50 (SF-539 CNS) [µM]	TGI (SF-539 CNS)	GI50 (NCI-H460 lung)	TGI (NCI-H460 lung) [µM]	GI50 (HCT-116 colon)	TGI (HCT-116 colon) [µM]	GI50 (K-562 leukemia)	TGI (K-562 leukemia)	GI50 (MDA-MB-231 breast)	TGI (MDA-MB-231 breast) [µM]	GI50 (RPMI-8226 leukemia)	TGI (RPMI-8226 leukemia) [µM]
CC1CCN(CCOc2ccc(CNc3ccc4nc(CCC5CCCCC5)[nH]c4c3)cc2)CC1	1.72	6.41 µM	1.59 µM	3.27	1.42 µM	2.85	1.76 µM	3.22	1.56	3.01 µM	1.72 µM	3.34	1.4 µM	2.72	0.594 µM	2.44 µM	1.53 µM	2.94	1.38 µM	3.35
COC1=C(OC)C(=O)C(CCCCCCCCCCO)=C(C)C1=O	3.15	20.4 µM	9.74 µM	29.7	16.3 µM	33.5	3.35 µM	11.2	7.49	20.3 µM	14.8 µM	34.9	4.46 µM	16.1			5.24 µM	22	4 µM	29.5
S=C(NCc1ccc2c(c1)OCO2)N1CCN(c2ncnc3c2oc2ccccc23)CC1	> 82.7	> 100 µM	> 100 µM	> 100	> 100 µM	> 100	> 63.3 µM	> 100	> 100	> 100 µM	6.85 µM	> 100	3.68 µM	> 100	3.6 µM	> 100 µM	> 100 µM	> 100	6.6 µM	> 100
CC1(C)[C@H](O)[C@H](F)C[C@@]2(C)Oc3ccc(C(=O)Nc4ccc5c(c4)NC(=O)C54CCN(CCCCC#N)CC4)cc3C[C@H]12	0.00949	5.98 µM and 6.98 µM	2.05 µM and 3.63 µM	34.4	6.76 µM and 2.71 µM	15	0.961 µM and 5.29 µM	23.2	0.00698	4.77 µM and 2.5 µM	0.0653 µM	10.9	0.149 µM and 1.33 µM	10.7	0.0573 µM and 0.012 µM	4.81 µM and 1.48 µM	0.842 µM and 0.537 µM	8.56	0.00262 µM	
c1ccc(CN2COc3c(ccc4c5c(ccc34)CN(Cc3ccccc3)CO5)C2)cc1		> 100 µM		> 100		> 100		> 100		> 100 µM		> 100		> 100		> 100 µM		> 100		> 100
Cc1ccc(Cl)cc1-n1c(C)nc2c(cnn2-c2ccnc3c(C(F)(F)F)cccc23)c1=O	> 100	> 100 µM	> 100 µM	> 100	> 100 µM	> 100	> 100 µM	> 100	> 100	> 100 µM	> 100 µM	> 100	> 100 µM	> 100	> 100 µM	> 100 µM	> 100 µM	> 100	> 100 µM	> 100
Cc1ccc(-n2c(-c3cc4c([nH]c5ccccc54)c(-c4cccc(O)c4)n3)n[nH]c2=S)cc1	0.682	11.6 µM	0.704 µM	4.74	0.268 µM	0.838	2.37 µM	15.4	0.306	1.06 µM	0.393 µM	10.2	0.384 µM	10	0.523 µM	> 100 µM	1.35 µM	6.35	0.808 µM	3.76
CCOC(=O)C(Cc1ccc(N(CCCl)CCCl)cc1)NC(=O)C(Cc1ccccc1)NC(C)=O (configuration not stated)		0.213 µM		> 0.308		> 1		0.309		> 0.294 µM		> 0.553		> 0.388		> 0.502 µM		> 0.366		0.211
N#C/C(=C\c1cc2ccc(N3CCC3)cc2oc1=O)C(=O)N(CC(=O)O)CC(=O)O	> 100	> 100 µM	> 100 µM	> 100	> 100 µM	> 100	> 100 µM	> 100	> 100	> 100 µM	> 100 µM	> 100	> 100 µM	> 100	97.2 µM	> 100 µM	> 100 µM	> 100	> 100 µM	> 100
O=C(c1cc(Cc2n[nH]c(=O)c3ccccc23)ccc1F)N1CCN(C(=O)C2CC2)CC1	> 100	> 100 µM	56.8 µM and 68.3 µM	> 100	53.5 µM and > 100 µM	> 100	96.1 µM and 88.2 µM	> 100	> 100	> 100 µM	9.25 µM and 9.96 µM	> 100	> 100 µM and 99.1 µM	> 100	54.5 µM and > 66.4 µM	> 100 µM	> 100 µM	> 100	30.5 µM and 35.7 µM	> 100
